In paper PMC10604213, “Purification and Characterization of Polyphenol Oxidase in the Fruits of Opuntia ficus-indica” (Biology, 2023) one finds Km data, which are given here for 3 compounds.

The test system of assay [1] is T1, polyphenol oxidase (PPO) from the fruits of Opuntia ficus-indica.
T1 construct: native, from fruit flesh; few SDS-PAGE bands, two prominent: slightly below 35 kDa and slightly above 45 kDa
The experiment in a line: absorbance at […] nm, Lineweaver-Burk. The assay is classed as biochemical. The note with it: 0.1 M phosphate buffer.

Assay [2] has the same test system. The experiment in a line: absorbance at […] nm, Lineweaver-Burk. Conditions: pH 9.0, 20 °C, 0.1 M Tris-base buffer. Type of assay: biochemical.

For `Cc1ccc(O)c(O)c1` [4-methyl catechol], the Michaelis-Menten constant (Km) (as a rule, the concentration of substrate that gives half-maximal velocity) in assay [1] (pH 7.5, 30 °C) turned out to be 5.38 mM.

With `Oc1ccccc1O` [catechol], the Km in assay [1] (pH 7.5, 20 °C) is 6.33 mM.

As for `Oc1cccc(O)c1O` [pyrogallol], the Michaelis constant (Km) in assay [2] came out at 16.7 mM.
